Patent publication US20230321064A1, “Products for Treating the JNCL Disease” (Beyond Batten Disease Foundation, priority 2020, published 2023)

Legend:
[1] = Tissue concentrations of Trehalose (liver, brain) by LC-MS/MS; format: in vivo, mouse
Description: LC-MS/MS bioanalytical methodologies were developed for the analysis of Trehalose, Miglustat and glucose in mouse whole blood and brain.
Tissue samples were homogenized in 8 volumes of sterile distilled water and 1 volume of TCA (20% in water) to generate a final concentration of 2% TCA, homogenates were centrifuged at 13000 rpm for 15 min at 4° C. and the supernatant transferred to a fresh plate. At the time of analysis, 1 volume of acetonitrile containing an internal standard was added in order to match the initial chromatography conditions, samples were centrifuged at 4350 rpm for 10 min at ambient temperature, and the resultant supernatant transferred for analysis on the LC-MS/MS.
The purpose of this example was to compare the blood PK of unlabelled high doses of Trehalose after IV and PO administration, with and without Miglustat PO dosing. For the IV comparison, Trehalose was dosed as an IV bolus dose 15 min after PO dosing of Miglustat. For the PO comparison Miglustat was dosed simultaneously with Trehalose. Fasted male C57BL6/N mice were dosed as detailed in Table III: […]

Cln3^Δex7-8 mice = assay: Lysosomal storage in cerebellum (SCMAS staining); format: in vivo, mouse; details: 12 months of age
Description: Cln3^Δex7-8 mice were obtained from the Jackson Laboratory. Control (C57BL/6J) and Cln3^Δex7-8 mice were housed 3-4 per cage in a room with a 12-h light/12-h dark cycle. Food and water were provided ad libitum. All mice used in this study were analyzed at 8 and 12 months of age and were littermates produced by crossing heterozygous Cln3^Δex7-8 mice. Only males were used for this analysis. Investigators were blinded when analyzing the data, and no randomization was necessary.
For oral administration, Trehalose was dissolved in drinking water to a final concentration of 2% and changed twice a week. […]
Serotec, Cat. No. MCA1957), GFAP (DAKO, Cat. No. Z0334), Subunit C of mitochondrial ATP synthase (SCMAS; Abcam, Cat. No. ab181243), or cleaved caspase 3 (Asp175) (Cell Signaling, Cat. No. 9661S) followed by either rabbit anti-rat (VectorLab) or swine anti-rabbit (DAKO) secondary antibodies, and immunoreactivity detected with Vectastain ABC (avidin-biotin) kit (Vector) and diaminobenzidine as a chromogen.
Non-overlapping images were captured, on three consecutive sections, through each region of interest. […] For quantification of storage and inflammation, images were analyzed using ImageJ analysis software (NIH), using an appropriate threshold that selected the foreground immunoreactivity above background. […]

[2] = 1 g/kg trehalose IV + 150 mg/kg miglustat PO, 180 min post-dose
[3] = 1 g/kg trehalose IV, 180 min post-dose

## OC[C@H]1O[C@H](O[C@H]2O[C@H](CO)[C@@H](O)[C@H](O)[C@H]2O)[C@H](O)[C@@H](O)[C@@H]1O [Trehalose, α-D-glucopyranosyl α-D-glucopyranoside dihydrate]
[1]; [2]
  Concentration of Trehalose, Brain L: 10.8 ± 2.0 nmol/g
  Concentration of Trehalose, Brain R: 10.5 ± 1.7 nmol/g
  Concentration of Trehalose, Liver: 278.6 ± 96.6 nmol/g
[1]; [3]
  Concentration of Trehalose, Brain L: 6.9 ± 1.9 nmol/g
  Concentration of Trehalose, Brain R: 7.3 ± 0.9 nmol/g
  Concentration of Trehalose, Liver: 167.9 ± 24.6 nmol/g
[1]; IV Trehalose in combination with oral Miglustat, 180 min post-dose
  brain exposure of Trehalose: about 10 nmol/g
[1]; IV Trehalose, 180 min post-dose
  brain exposure of Trehalose: about 7 nmol/g
[1]; PO Trehalose
  brain exposure of Trehalose: 2.5 nmol/g
Cln3^Δex7-8 mice
  increased storage in the cerebellum (SCMAS staining): partially reduces this increased storage
